Assay results reported in ChEMBL document CHEMBL1255421, “In vitro fungicidal activities of echinocandins against Candida metapsilosis, C. orthopsilosis, and C. parapsilosis evaluated by time-kill studies” (2010).
In brackets after ≈: the same amount, converted by molar mass. Activity calls are given as the source filed them. No cut-off for these calls is given here. Numbered stars: 1 amine (or outer) side, 2 acyl side, 3 side chain; on linkers, the order of the positions; unused ones are H or OH. Bridge positions count the residues as written; N and C are the ends. Square brackets hold non-standard residues; d marks the D form. Peptide text beside a SMILES is read from it. * marks the point of attachment. pTerphenylCO(4''-OnC5H11) = CCCCCOc1ccc(-c2ccc(-c3ccc(C(=O)*)cc3)cc2)cc1; Orn(4R-OH,5R-OH) = O=C([C@H](C[C@@H](O)[C@@H](O)N[*:3])N[*:1])[*:2]; hTyr(3S-OH,4S-OH) = N[C@H](C(=O)O)[C@H](O)[C@@H](O)c1ccc(O)cc1; Pro(3S-OH,4S-Me) = C[C@H]1CN[C@H](C(=O)O)[C@H]1O; Hyp = O=C(O)[C@@H]1C[C@@H](O)CN1

Columns and labels:
Candida orthopsilosis [1] = test: Antifungal activity against Candida orthopsilosis clinical isolate bloodstream form assessed as time required for 99.9% reduction in fungal growth at 1 mg/L by time-kill assay; assay type: functional
Candida orthopsilosis [2] = test: Antifungal activity against Candida orthopsilosis clinical isolate bloodstream form assessed as time required for 99.9% reduction in fungal growth at 16 mg/L by time-kill assay; assay type: functional
Candida orthopsilosis [3] = test: Antifungal activity against Candida orthopsilosis clinical isolate bloodstream form assessed as time required for 99.9% reduction in fungal growth at 32 mg/L by time-kill assay; assay type: functional
Candida metapsilosis [4] = test: Antifungal activity against Candida metapsilosis clinical isolate bloodstream form assessed as time required for 50% reduction in fungal growth at 0.25 mg/L by time-kill assay; assay type: functional
Candida metapsilosis [5] = test: Antifungal activity against Candida metapsilosis clinical isolate bloodstream form assessed as time required for 50% reduction in fungal growth at 1 mg/L by time-kill assay; assay type: functional
Candida metapsilosis [6] = test: Antifungal activity against Candida metapsilosis clinical isolate bloodstream form assessed as time required for 50% reduction in fungal growth at 4 mg/L by time-kill assay; assay type: functional
Candida metapsilosis [7] = test: Antifungal activity against Candida metapsilosis clinical isolate bloodstream form assessed as time required for 90% reduction in fungal growth at 4 mg/L by time-kill assay; assay type: functional
Candida metapsilosis [8] = test: Antifungal activity against Candida metapsilosis clinical isolate bloodstream form assessed as time required for 90% reduction in fungal growth at 16 mg/L by time-kill assay; assay type: functional
Candida metapsilosis [9] = test: Antifungal activity against Candida metapsilosis clinical isolate bloodstream form assessed as time required for 99% reduction in fungal growth at 1 mg/L by time-kill assay; assay type: functional
Candida metapsilosis [10] = test: Antifungal activity against Candida metapsilosis clinical isolate bloodstream form assessed as time required for 99% reduction in fungal growth at 16 mg/L by time-kill assay; assay type: functional
Candida metapsilosis [11] = test: Antifungal activity against Candida metapsilosis clinical isolate bloodstream form assessed as time required for 99% reduction in fungal growth at 32 mg/L by time-kill assay; assay type: functional
Candida metapsilosis [12] = test: Antifungal activity against Candida metapsilosis clinical isolate bloodstream form assessed as time required for 99.9% reduction in fungal growth at 0.25 mg/L by time-kill assay; assay type: functional
Candida metapsilosis [13] = test: Antifungal activity against Candida metapsilosis clinical isolate bloodstream form assessed as time required for 99.9% reduction in fungal growth at 4 mg/L by time-kill assay; assay type: functional
Candida metapsilosis [14] = test: Antifungal activity against Candida metapsilosis clinical isolate bloodstream form assessed as time required for 99.9% reduction in fungal growth at 16 mg/L by time-kill assay; assay type: functional
Candida parapsilosis [15] = test: Antifungal activity against Candida parapsilosis clinical isolate bloodstream form assessed as time required for 50% reduction in fungal growth at 1 mg/L by time-kill assay; assay type: functional
Candida parapsilosis [16] = test: Antifungal activity against Candida parapsilosis clinical isolate bloodstream form assessed as time required for 50% reduction in fungal growth at 4 mg/L by time-kill assay; assay type: functional
Candida parapsilosis [17] = test: Antifungal activity against Candida parapsilosis clinical isolate bloodstream form assessed as time required for 50% reduction in fungal growth at 16 mg/L by time-kill assay; assay type: functional
Candida parapsilosis [18] = test: Antifungal activity against Candida parapsilosis clinical isolate bloodstream form assessed as time required for 90% reduction in fungal growth at 4 mg/L by time-kill assay; assay type: functional
Candida parapsilosis [19] = test: Antifungal activity against Candida parapsilosis clinical isolate bloodstream form assessed as time required for 90% reduction in fungal growth at 16 mg/L by time-kill assay; assay type: functional
Candida parapsilosis [20] = test: Antifungal activity against Candida parapsilosis clinical isolate bloodstream form assessed as time required for 90% reduction in fungal growth at 32 mg/L by time-kill assay; assay type: functional
Candida parapsilosis [21] = test: Antifungal activity against Candida parapsilosis clinical isolate bloodstream form assessed as time required for 99.9% reduction in fungal growth at 0.25 mg/L by time-kill assay; assay type: functional
Candida parapsilosis [22] = test: Antifungal activity against Candida parapsilosis clinical isolate bloodstream form assessed as time required for 99.9% reduction in fungal growth at 1 mg/L by time-kill assay; assay type: functional
Candida parapsilosis [23] = test: Antifungal activity against Candida parapsilosis clinical isolate bloodstream form assessed as time required for 99.9% reduction in fungal growth at 4 mg/L by time-kill assay; assay type: functional
Candida parapsilosis [24] = test: Antifungal activity against Candida parapsilosis clinical isolate bloodstream form assessed as time required for 99.9% reduction in fungal growth at 16 mg/L by time-kill assay; assay type: functional
Candida orthopsilosis [25] = test: Fungicidal activity against Candida orthopsilosis isolate CP-131 bloodstream form by CLSI method; assay type: functional; settings: Lodderomyces orthopsilosis
Candida orthopsilosis [26] = test: Fungicidal activity against Candida orthopsilosis isolate ATC194 bloodstream form by CLSI method; assay type: functional; settings: Lodderomyces orthopsilosis, isolate ATC-194
Candida metapsilosis [27] = test: Fungicidal activity against Candida metapsilosis isolate CP-132 bloodstream form by CLSI method; assay type: functional; settings: Lodderomyces metapsilosis
Candida parapsilosis [28] = test: Fungicidal activity against Candida parapsilosis isolate CP-300 bloodstream form by CLSI method; assay type: functional; settings: Lodderomyces parapsilosis
Candida parapsilosis [29] = test: Fungicidal activity against Candida parapsilosis isolate CP-301 bloodstream form by CLSI method; assay type: functional; settings: Lodderomyces parapsilosis
Candida parapsilosis [30] = test: Fungicidal activity against Candida parapsilosis ATCC 22019 bloodstream form by CLSI method; assay type: functional; settings: Lodderomyces parapsilosis
Candida parapsilosis [31] = test: Antifungal activity against Candida parapsilosis clinical isolate bloodstream form assessed as induction of fungal killing rate at 0.03 to 32 mg/L measured at 6 hrs by time-kill assay; assay type: functional, organism-based
Candida orthopsilosis [32] = test: Antifungal activity against Candida orthopsilosis clinical isolate bloodstream form assessed as induction of fungal killing rate at 0.03 to 32 mg/L measured at 6 hrs by time-kill assay; assay type: functional, organism-based
Candida metapsilosis [33] = test: Antifungal activity against Candida metapsilosis clinical isolate bloodstream form assessed as mild induction of fungal death at 0.03 to 32 mg/L after 6 hrs by time-kill assay; assay type: functional, organism-based
Candida orthopsilosis [34] = test: Antifungal activity against Candida orthopsilosis clinical isolate bloodstream form assessed as time required for 50% reduction in fungal growth at 0.25 mg/L by time-kill assay; assay type: functional
Candida orthopsilosis [35] = test: Antifungal activity against Candida orthopsilosis clinical isolate bloodstream form assessed as time required for 50% reduction in fungal growth at 4 mg/L by time-kill assay; assay type: functional
Candida orthopsilosis [36] = test: Antifungal activity against Candida orthopsilosis clinical isolate bloodstream form assessed as time required for 50% reduction in fungal growth at 16 mg/L by time-kill assay; assay type: functional
Candida orthopsilosis [37] = test: Antifungal activity against Candida orthopsilosis clinical isolate bloodstream form assessed as time required for 90% reduction in fungal growth at 0.25 mg/L by time-kill assay; assay type: functional
Candida orthopsilosis [38] = test: Antifungal activity against Candida orthopsilosis clinical isolate bloodstream form assessed as time required for 90% reduction in fungal growth at 1 mg/L by time-kill assay; assay type: functional
Candida orthopsilosis [39] = test: Antifungal activity against Candida orthopsilosis clinical isolate bloodstream form assessed as time required for 99% reduction in fungal growth at 0.25 mg/L by time-kill assay; assay type: functional
Candida orthopsilosis [40] = test: Antifungal activity against Candida orthopsilosis clinical isolate bloodstream form assessed as time required for 99% reduction in fungal growth at 1 mg/L by time-kill assay; assay type: functional
Candida orthopsilosis [41] = test: Antifungal activity against Candida orthopsilosis clinical isolate bloodstream form assessed as time required for 99% reduction in fungal growth at 4 mg/L by time-kill assay; assay type: functional
Candida orthopsilosis [42] = test: Antifungal activity against Candida orthopsilosis clinical isolate bloodstream form assessed as time required for 99% reduction in fungal growth at 16 mg/L by time-kill assay; assay type: functional
Candida orthopsilosis [43] = test: Antifungal activity against Candida orthopsilosis clinical isolate bloodstream form assessed as time required for 99% reduction in fungal growth at 32 mg/L by time-kill assay; assay type: functional

## CCCCCOc1ccc(-c2ccc(-c3ccc(C(=O)N[C@H]4C[C@@H](O)[C@@H](O)NC(=O)[C@@H]5[C@@H](O)[C@@H](C)CN5C(=O)[C@H]([C@@H](C)O)NC(=O)[C@H]([C@H](O)[C@@H](O)c5ccc(O)cc5)NC(=O)[C@@H]5C[C@@H](O)CN5C(=O)[C@H]([C@@H](C)O)NC4=O)cc3)cc2)cc1 [ANIDULAFUNGIN] ({pTerphenylCO(4''-OnC5H11)}-[Orn(4R-OH,5R-OH)]T[Hyp][hTyr(3S-OH,4S-OH)]T[Pro(3S-OH,4S-Me)]; lactam 1-C)
Candida orthopsilosis [1]
  Time: >48 h
Candida orthopsilosis [2]
  Time: 18.73 h
Candida orthopsilosis [3]
  Time: 14.72 h
Candida metapsilosis [4]
  Time: 7.74 h
Candida metapsilosis [5]
  Time: 1.57 h
Candida metapsilosis [6]
  Time: 2.39 h
Candida metapsilosis [7]
  Time: 7.94 h
Candida metapsilosis [8]
  Time: 5.01 h
Candida metapsilosis [9]
  Time: 10.44 h
Candida metapsilosis [10]
  Time: 10.02 h
Candida metapsilosis [11]
  Time: 9.37 h
Candida metapsilosis [12]
  Time: 77.12 h
Candida metapsilosis [13]
  Time: 23.83 h
Candida metapsilosis [14]
  Time: 15.03 h
Candida parapsilosis [15]
  Time: inactive
Candida parapsilosis [16]
  Time: 26.41 h
Candida parapsilosis [17]
  Time: 7.84 h
Candida parapsilosis [18]
  Time: >48 h
Candida parapsilosis [19]
  Time: 26.04 h
Candida parapsilosis [20]
  Time: 13.95 h
Candida parapsilosis [21]
  Time: inactive
Candida parapsilosis [22]
  Time: inactive
Candida parapsilosis [23]
  Time: >48 h
Candida parapsilosis [24]
  Time: >48 h
Candida orthopsilosis [25]
  MIC: 0.25 µg/mL (≈ 0.219 µM)
Candida orthopsilosis [26]
  MIC: 0.12 µg/mL (≈ 0.105 µM)
Candida metapsilosis [27]
  MIC: 0.06 µg/mL (≈ 0.0526 µM)
Candida parapsilosis [28]
  MIC: 0.5 µg/mL (≈ 0.438 µM)
Candida parapsilosis [29]
  MIC: 1 µg/mL (≈ 0.877 µM)
Candida parapsilosis [30]
  MIC: 1 µg/mL (≈ 0.877 µM)
Candida parapsilosis [31]
  Activity: inactive
Candida orthopsilosis [32]
  Activity: inactive
Candida metapsilosis [33]
  Activity: Active
Candida orthopsilosis [34]
  Time: 17.4 h
Candida orthopsilosis [35]
  Time: 2.73 h
Candida orthopsilosis [36]
  Time: 1.88 h
Candida orthopsilosis [37]
  Time: >48 h
Candida orthopsilosis [38]
  Time: 21.14 h
Candida orthopsilosis [39]
  Time: >48 h
Candida orthopsilosis [40]
  Time: 42.28 h
Candida orthopsilosis [41]
  Time: 18.17 h
Candida orthopsilosis [42]
  Time: 12.48 h
Candida orthopsilosis [43]
  Time: 9.81 h
